From ChEMBL document CHEMBL5604063, “ASAP - DENV-2 NS2B-NS3 protease fluorescence dose response” (2024)
“And” between values parts separate entries of the source, which are not always exact repeats. Equal entries are not always repeated. Peptide text beside a SMILES is read from it. * marks the point of attachment. pNA = O=[N+]([O-])c1ccc(N*)cc1; Boc = CC(C)(C)OC(=O)*

What was measured:
[1] = target: T1, Genome polyprotein (dengue virus type 2, UniProt P29990); type: functional, Thailand/16681/1984
[2] = target: T1, Genome polyprotein; type: functional, Thailand/16681/1984; remark: listed apart in the source

T1 sequence (P29990 1346-1475 limits assumed): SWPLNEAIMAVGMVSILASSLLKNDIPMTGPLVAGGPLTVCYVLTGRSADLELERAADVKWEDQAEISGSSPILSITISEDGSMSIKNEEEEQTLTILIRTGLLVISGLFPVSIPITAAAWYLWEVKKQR
T1 sequence (P29990 1476-2093 limits assumed): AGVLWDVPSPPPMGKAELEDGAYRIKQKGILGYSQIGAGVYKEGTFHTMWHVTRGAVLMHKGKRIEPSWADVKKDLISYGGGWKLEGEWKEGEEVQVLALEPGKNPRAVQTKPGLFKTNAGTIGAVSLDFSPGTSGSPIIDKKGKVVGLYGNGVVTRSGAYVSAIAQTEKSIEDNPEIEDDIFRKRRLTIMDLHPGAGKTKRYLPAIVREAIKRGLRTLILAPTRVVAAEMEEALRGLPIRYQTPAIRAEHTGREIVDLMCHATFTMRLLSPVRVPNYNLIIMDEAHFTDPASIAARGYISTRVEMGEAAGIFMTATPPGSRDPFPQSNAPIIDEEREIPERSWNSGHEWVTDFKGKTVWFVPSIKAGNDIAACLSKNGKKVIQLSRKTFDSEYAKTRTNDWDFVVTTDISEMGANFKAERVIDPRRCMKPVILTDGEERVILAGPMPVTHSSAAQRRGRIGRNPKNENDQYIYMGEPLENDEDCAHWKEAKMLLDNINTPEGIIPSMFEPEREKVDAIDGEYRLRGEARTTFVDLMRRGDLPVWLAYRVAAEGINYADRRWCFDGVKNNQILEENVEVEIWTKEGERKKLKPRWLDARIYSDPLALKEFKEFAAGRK

Structure (SMILES) | IC50 [1] | IC50 [2]
N=C(N)NCCC[C@H](NC(=O)c1nccs1)C(=O)N[C@@H](CCCCN)C(=O)N[C@@H](C(N)=O)c1ccc(OCc2ccc(C(F)(F)F)cc2)cc1 | 1.46 µM and 1.87 µM and 1.17 µM and 2.77 µM and 3.21 µM and 2.73 µM and 3 µM and 2.69 µM and 2.58 µM and 2.57 µM (2×) and 2.84 µM (2×) and 3.15 µM and 3.2 µM and 2.52 µM (2×) and 2.33 µM and 2.17 µM and 2.34 µM and 2.39 µM and 2.31 µM and 2.49 µM and 2.93 µM and 2.95 µM and 2.64 µM and 3.09 µM and 2.26 µM and 2.59 µM and 2.92 µM and 2.68 µM and 2.2 µM and 2.3 µM and 2.12 µM and 1.71 µM and 1.91 µM and 1.72 µM and 2.55 µM and 2.1 µM | 
N=C(N)NCCC[C@H](NC(=O)[C@H](Cc1ccc(CN)cc1)NC(=O)c1ccccc1)B(O)O | 305 nM and 257 nM and 222 nM and 304 nM and 397 nM and 347 nM and 311 nM and 370 nM and 386 nM and 288 nM and 401 nM (2×) and 387 nM and 378 nM and 379 nM and 356 nM and 445 nM and 309 nM and 358 nM (2×) and 321 nM and 398 nM and 512 nM and 367 nM and 298 nM and 273 nM and 243 nM and 437 nM and 458 nM and 503 nM and 302 nM and 267 nM and 516 nM and 409 nM and 384 nM and 328 nM and 540 nM and 421 nM | 720 nM and 583 nM and 818 nM and 732 nM and 585 nM and < 2.49 µM (9×) and 276 nM and 270 nM and 274 nM and 310 nM and 236 nM and 572 nM and 397 nM and 474 nM and 507 nM and 265 nM
Nc1cc(Cl)cc(C(=O)Nc2ccc3c(c2)CNC3)c1N | > 100 µM | 
Cc1c(C(=O)Nc2cccc(-c3nnn[nH]3)c2)sc2ccccc12 | 75.2 µM | 
Cc1ccncc1-c1cc(CN)cc([C@@H]2C[C@H]2c2cc(Cl)cc(NC(=O)OCc3ccccc3)c2)c1 | > 100 µM | 
O=C(Nc1cc(Cl)cc(C(=O)Nc2ccc3c(c2)CNC3)c1)OCc1ccccc1 | > 100 µM | > 99.5 µM
O=C(Nc1ccc2c(c1)CNC2)c1cc(Br)cc2[nH]c(Cc3ccccc3)nc12 | > 100 µM and 53.9 µM | 
O=C(O)c1cc(Cc2c[nH]c3ccc(Cl)cc23)cc(C2CC2)n1 | > 100 µM | 
N#C[C@H](Nc1ccc2c(c1)CNC2)c1n[nH]c2cc(C(F)(F)F)ccc12 | > 100 µM | 
N[C@H]1CCc2cc(NC(=O)c3cc(Cl)cc4[nH]ncc34)ccc21 | 59.2 µM | 
CC(C)c1nc2c(C(=O)Nc3ccc4c(c3)CNC4)cc(Br)cc2[nH]1 | > 100 µM | 
N#Cc1cccc(-c2nc3c(C(=O)Nc4cccnc4)cc(Cl)cc3[nH]2)c1 | > 100 µM | 
N#Cc1cccc(-c2nc3c(C(=O)Nc4ccncc4)cc(Cl)cc3[nH]2)c1 | > 100 µM | 
N#Cc1cccc(-c2nc3c(C(=O)Nc4ccccc4)cc(Cl)cc3[nH]2)c1 | > 100 µM | 
N#Cc1cccc(-c2nc3c(C(=O)NCc4ccccc4)cc(Cl)cc3[nH]2)c1 | > 100 µM | 
Cc1c(C(=O)Nc2cc(C(=O)N3CCn4nccc43)ccn2)cc(C2CC2)n1C | > 100 µM | 
NCc1cccc([C@@H]2C[C@H]2c2cc(Cl)cc(NC(=O)OCc3ccccc3)c2)c1 | > 100 µM | 30.3 µM and 50.1 µM
O=C(Nc1ccc2c(c1)CNC2)c1cc(F)cc(C=C2CCS(=O)(=O)CC2)c1 |  | > 99.5 µM
CC(C)CNC(=O)c1cc(Cl)cc2[nH]c(-c3cccc(C#N)c3)nc12 | > 100 µM | 
Cc1c(C(=O)Nc2ccc3c(c2)C(=O)N(C)C3)cc(C2CC2)n1C |  | > 99.5 µM
Cc1cc(NC(=O)c2cc(C3CC3)n(C)c2C)ccc1N1CCCC1=O |  | > 99.5 µM

Structure (SMILES) | IC50 [1] | IC50 [2]
Cc1c(C(=O)Nc2ccc3c(c2)CCCC(=O)N3)cc(C2CC2)n1C |  | > 99.5 µM
Cc1ncc(C(=O)Nc2cccc(CN)c2)cc1NC(=O)OCc1ccccc1 | > 100 µM | > 99.5 µM
NCc1cccc(NC(=O)[C@@H](NC(=O)OCc2ccccc2)c2ccc(OCc3ccccc3)cc2)c1 | 31 µM and 29.9 µM and 41.3 µM and 32.5 µM and 27.7 µM and 33.1 µM and 29.8 µM and 19 µM and 28.8 µM | 14.2 µM
Cc1c(C(=O)Nc2cccc(-c3ccc(=O)[nH]n3)c2)cc(C2CC2)n1C |  | > 99.5 µM
NCc1cccc(NC(=O)C[C@H](NC(=O)OCc2ccccc2)c2ccc(OCc3ccccc3)c(Br)c2)c1 | 8.8 µM and 6.74 µM and 4.06 µM and 4.11 µM and 9.99 µM and 4.61 µM and 3.66 µM | < 2.49 µM and 1.85 µM and 1.92 µM and 1.84 µM and 2.53 µM and 2.67 µM and 2.65 µM
COC(=O)[C@H](C)n1cc2c(C(=O)Nc3ccc4c(c3)CNC4)cc(Cl)cc2n1 |  | > 99.5 µM
O=C1COc2c(cccc2N2CCN(Cc3c[nH]c4ccccc34)CC2)N1 | > 100 µM | > 99.5 µM
O=C(Nc1cc(Cl)cc(C(=O)Nc2ncc(C3CNC3)s2)c1)OCc1ccccc1 | > 100 µM | 
NCc1cccc(NC(=O)c2cc(NC(=O)OCc3ccccc3)cc(C(N)=O)c2)c1 | > 100 µM | > 99.5 µM
C=CC[C@H]1NCc2cc(NC(=O)c3ccc4c(c3)CC(=O)N4)ccc21 |  | > 99.5 µM
Brc1cc(CNc2ccc3c(c2)CNC3)c2cc[nH]c2c1 |  | > 99.5 µM
COc1ccccc1-c1nc2c(C(=O)Nc3ccc4c(c3)CNC4)cc(F)cc2[nH]1 | > 100 µM | 
NCc1nc(CNC(=O)c2cc(Cl)cc(NC(=O)OCc3ccccc3)c2)cs1 | > 100 µM | > 99.5 µM
Cc1nccn1CCOc1cccc([C@H](NC(=O)OCc2ccccc2)C(=O)Nc2cccc(CN)c2)c1 | > 100 µM | > 99.5 µM
O=C(O)c1cc(Cl)c(F)cc1NS(=O)(=O)c1ccc(Oc2ccccc2Cl)cc1 | 11.2 µM and 8.35 µM and 16.5 µM and 10.2 µM and 9.1 µM and 8.36 µM and 12.3 µM and 5.27 µM and 5.73 µM | 7.82 µM
NCc1cccc(NC(=O)[C@H](NC(=O)OCc2ccccc2)c2cccc(OCc3ccncc3)c2)c1 | > 100 µM | > 99.5 µM
CC[C@H](CO)NC(=O)Cn1ccnc(N2CC[C@H](CO)C2)c1=O | > 100 µM | 
NCc1cccc(NC(=O)c2cccc(CN)c2)c1 | > 100 µM | 
NCc1cccc(NC(=O)[C@H](NC(=O)OCc2ccccc2)C2CCN(Cc3ccccc3)CC2)c1 | > 100 µM | > 99.5 µM
CCN1CC[C@H](COc2cccc([C@H](NC(=O)OCc3ccccc3)C(=O)Nc3cccc(CN)c3)c2)C1 | > 100 µM | > 99.5 µM
Cc1cccc(-c2nc3c(C(=O)Nc4ccc5c(c4)CNC5)cc(F)cc3[nH]2)c1 |  | 8.87 µM and 6.46 µM

Structure (SMILES) | IC50 [1] | IC50 [2]
Cc1ccccc1-c1nc2c(C(=O)Nc3ccc4c(c3)CNC4)cc(F)cc2[nH]1 |  | 3.46 µM and 3.38 µM
CO[C@H](C)Cn1cc2c(C(=O)Nc3ccc4c(c3)CNC4)cc(Cl)cc2n1 | > 100 µM | 
NCc1cccc(NC(=O)c2cc(Cl)cc(F)c2F)c1 | > 100 µM | > 99.5 µM
CC(C)CNC(=O)c1cc(Cl)c(F)cc1NS(=O)(=O)c1ccc(Oc2ccccc2Cl)cc1 | 14.5 µM and 12.6 µM and 12.2 µM and 23.3 µM and 8.64 µM | 6.13 µM
N#Cc1cccc(-c2nc3c(C(=O)NCc4ccccn4)cc(Cl)cc3[nH]2)c1 | > 100 µM | 
N#Cc1cccc(-c2nc3c(C(=O)NCc4cccnc4)cc(Cl)cc3[nH]2)c1 | > 100 µM | 
O=C(Nc1ccc2c(c1)CNC2)c1cc(F)cc2[nH]c(-c3cnccc3O)nc12 |  | 69.7 µM
NCc1csc2cc(C(=O)Nc3ccc4c(c3)CNC4)ccc12 | 83.1 µM and > 100 µM | 
NCc1cccc(NC(=O)c2cc3c(c(NC(=O)OCc4ccccc4)c2)OCC3)c1 | > 100 µM | > 99.5 µM
O=C(Nc1ccc2c(c1)CNC2)c1cc(Cl)cc2c1cnn2C[C@H]1CCCO1 |  | > 99.5 µM
C[C@]1(O)C(=O)Nc2cc(F)cc(C(=O)Nc3ccc4c(c3)CNC4)c21 |  | > 99.5 µM
O=C1Cc2c(cc(F)cc2C(=O)Nc2cc([C@H]3CCOC3)ccn2)N1 |  | > 99.5 µM
O=C(Nc1cc(Cl)cc(-c2cc3cc(C(=O)O)ncn3c2)c1)OCc1ccccc1 | 50.1 µM | 
Cc1c(C(=O)Nc2ccc3c(c2)CS(=O)(=O)C3)cc(C2CC2)n1C |  | > 99.5 µM
CC(C)N1C(=O)C[C@H](C(=O)Nc2cccc(CN)c2)[C@H]1c1ccc(Cl)c(F)c1 | > 100 µM | > 99.5 µM
NCc1cccc(NC(=O)c2cc(Cl)cc(NC(=O)OCc3ccccc3)c2)c1 | > 100 µM | 78.2 µM and 61.5 µM
CCc1cc(C(=O)Nc2ccc3c(c2)CNC3)cc2cn[nH]c12 |  | > 99.5 µM
CN(C)Cc1cccc(NC(=O)[C@H](NC(=O)OCc2ccccc2)c2ccc(OCc3ccccc3)cc2)c1 | > 100 µM | > 99.5 µM
Cc1cc(-c2ccc([C@@H](NC(=O)OCc3ccccc3)C(=O)Nc3cccc(CN)c3)cc2)cs1 | 30.5 µM and 16.5 µM and 28.3 µM and 18.6 µM and 11.2 µM and 15.5 µM | 4.01 µM
NCc1cc(Cl)cc(C(=O)Nc2cccc(-c3nn[nH]n3)c2)c1 | > 100 µM | 
C#Cc1cc(NC(=O)OCc2ccccc2)cc(C(=O)Nc2cccc(CN)c2)c1 | > 100 µM | 81.7 µM

Structure (SMILES) | IC50 [1] | IC50 [2]
COc1cc(NC(=O)OCc2ccccc2)cc(C(=O)Nc2cccc(CN)c2)c1OC | > 100 µM | > 99.5 µM
N#Cc1cccc2[nH]cc(CN3CCC(c4cscn4)CC3)c12 | > 100 µM | > 99.5 µM
COCCNC(=O)[C@H](Nc1cccc([C@H]2CCOC2)c1)c1cc(Br)cc2[nH]ccc12 |  | > 99.5 µM
O=C(NCc1cccnc1)[C@H](Nc1ccc2c(c1)CNC2)c1cc(Cl)cc2[nH]ncc12 | > 100 µM | 
O=C1Nc2ncccc2C[C@H]1NCc1n[nH]c2ccccc12 | > 100 µM | > 99.5 µM
N[C@H]1CCN(c2ccc(NS(=O)(=O)c3ccc(Oc4ccccc4Cl)cc3)cc2)C1 | > 100 µM | 
O=C1C[C@H]2CN(C(=O)Nc3ccc4c(c3)CNC4)CC[C@H]2N1 |  | > 99.5 µM
O=C(NCC(F)F)[C@H](Nc1ccc2c(n1)CNC2)c1cc(Cl)cc(C2CC2)c1 |  | > 296 µM
Cc1ncc(NC(=O)OCc2ccccc2)cc1C(=O)Nc1cccc(CN)c1 | > 100 µM | > 99.5 µM
NCc1cn(CCNC(=O)c2cc(Cl)cc(NC(=O)OCc3ccccc3)c2)nn1 | > 100 µM | > 99.5 µM
NCc1cccc(NC(=O)c2cc(Cl)ccc2NS(=O)(=O)c2ccccc2)c1 | > 100 µM | > 99.5 µM
Cc1ocnc1COc1cccc([C@H](NC(=O)OCc2ccccc2)C(=O)Nc2cccc(CN)c2)c1 | > 100 µM | > 99.5 µM
N#Cc1cccc(N2CCN(Cc3c[nH]c4ccccc34)CC2)c1 | > 100 µM | > 99.5 µM
Cc1cc(NC(=O)c2cc(C3CC3)n(C)c2C)cnc1N1CCCCC1 |  | > 99.5 µM
O=C(Nc1ccc2c(c1)CNC2)c1cc(Cl)cc2c1NCCC2 | > 100 µM | 
COc1ccc(S(=O)(=O)n2nc(OC(=O)c3ccccc3)cc2N)cc1 | 2.53 µM and 2.17 µM and 3.95 µM and 3.07 µM (2×) and 2.23 µM and 3.29 µM and 3.81 µM and 2.28 µM | 3.47 µM
CSCC[C@H](NC(=O)OC(C)(C)C)C(=O)N1CCC[C@H]1C(=O)Nc1ccc([N+](=O)[O-])cc1 (Boc-Met-Pro-pNA) |  | > 99.5 µM
CSCC[C@H](N)C(=O)N1CCC[C@H]1C(=O)Nc1ccc([N+](=O)[O-])cc1 (H-Met-Pro-pNA) |  | > 99.5 µM
O=C(Nc1ccccc1)OCc1ccccc1 [BENZYL PHENYLCARBAMATE] |  | > 99.5 µM
O=C(Nc1ccccc1)Oc1ccccc1 [PHENYL PHENYLCARBAMATE] |  | > 59.8 µM
